# Where “and” joins values, the source holds several entries; their conditions need not be identical. Equal entries are not always repeated. Results filed as inconclusive are left out. Positions of bridges follow the written chain, without caps; N, C: chain ends. Residues, ends and D or L forms follow the SMILES beside them.
# System: CD8F1 mice, subcutaneous mammary adenocarcinoma, T/C%
# Assay: NCI In Vivo Anticancer Drug Screen. Data for tumor model Mammary Adenocarcinoma CD8F1 (subcutaneous) in CD8F1
# Settings: higher = larger tumour
# Description: The antitumor activity of compounds was measured in mice bearing transplantable tumors. Survival or tumor size were measured and the results are expressed as the measurement made in the treated group (T) divided by the measurement made in the vehicle treated control group (C). The tumor model used in this assay is Mammary Adenocarcinoma CD8F1 (subcutaneous) in CD8F1
# [1] = endpoint: median tumor weight (est.), dose: 25.0 mg/kg/injection, schedule: Q07DX005 (ip), vehicle: Klucel (hydroxypropylcellulose) (HPC)
# [2] = endpoint: median tumor weight (est.), dose: 50.0 mg/kg/injection, schedule: Q07DX005 (ip), vehicle: Klucel (hydroxypropylcellulose) (HPC)
# [3] = endpoint: median tumor weight (est.), dose: 100.0 mg/kg/injection, schedule: Q07DX005 (ip), vehicle: Klucel (hydroxypropylcellulose) (HPC)
# [4] = endpoint: median tumor weight (est.), dose: 200.0 mg/kg/injection, schedule: Q07DX005 (ip), vehicle: Klucel (hydroxypropylcellulose) (HPC)
# [5] = endpoint: median tumor weight (est.), dose: 400.0 mg/kg/injection, schedule: Q07DX005 (ip), vehicle: Klucel (hydroxypropylcellulose) (HPC)
# [6] = endpoint: median tumor weight (est.), dose: 800.0 mg/kg/injection, schedule: Q07DX005 (ip), vehicle: Klucel (hydroxypropylcellulose) (HPC)
# [7] = endpoint: median tumor weight change, dose: 31.25 mg/kg/injection, schedule: Q01DX001 (ip), vehicle: saline with Tween-80
# [8] = endpoint: median tumor weight change, dose: 62.5 mg/kg/injection, schedule: Q01DX001 (ip), vehicle: saline with Tween-80
# [9] = endpoint: median tumor weight (est.), dose: 12.5 mg/kg/injection, schedule: Q07DX005 (ip), vehicle: saline with Tween-80
# [10] = endpoint: median tumor weight (est.), dose: 25.0 mg/kg/injection, schedule: Q07DX005 (ip), vehicle: saline with Tween-80
# [11] = endpoint: median tumor weight (est.), dose: 3.12 mg/kg/injection, schedule: Q07DX005 (ip), vehicle: Klucel (hydroxypropylcellulose) (HPC)
# [12] = endpoint: median tumor weight (est.), dose: 6.25 mg/kg/injection, schedule: Q07DX005 (ip), vehicle: Klucel (hydroxypropylcellulose) (HPC)
# [13] = endpoint: median tumor weight (est.), dose: 12.5 mg/kg/injection, schedule: Q07DX005 (ip), vehicle: Klucel (hydroxypropylcellulose) (HPC)
# [14] = endpoint: median tumor weight (est.), dose: 6.25 mg/kg/injection, schedule: Q07DX005 (ip), vehicle: water
smiles,measurement,setting,value
C(C#CCN1CCOCC1)#CCN1CCOCC1,T/C,[1],181 % of control
same,T/C,[2],43 % of control
same,T/C,[3],48 % of control
same,T/C,[4],41 % of control
same,T/C,[5],68 % of control
same,T/C,[6],62 % of control
O/N=C/c1ccccc1O.O/N=C/c1ccccc1O.[Cu],T/C,[7],90 % of control
same,T/C,[8],59 % of control
CCCCCCCCCCCCCCCCCCCCCC(=O)Nc1ccn(C2OC(CO)C(O)C2O)c(=O)n1 (configuration not stated),T/C,[9],104 % of control
same,T/C,[10],68 % of control
same,T/C,"endpoint: median tumor weight (est.), dose: 50.0 mg/kg/injection, schedule: Q07DX005 (ip), vehicle: saline with Tween-80",75 % of control
same,T/C,"endpoint: median tumor weight (est.), dose: 100.0 mg/kg/injection, schedule: Q07DX005 (ip), vehicle: saline with Tween-80",69 % of control
same,T/C,"endpoint: median tumor weight (est.), dose: 200.0 mg/kg/injection, schedule: Q07DX005 (ip), vehicle: saline with Tween-80",49 % of control
same,T/C,"endpoint: median tumor weight (est.), dose: 400.0 mg/kg/injection, schedule: Q07DX005 (ip), vehicle: saline with Tween-80",53 % of control
CCCCC1CCCCCCc2[nH]c(/C=C3\N=C(c4ccc[nH]4)C=C3OC)cc21 (configuration not stated),T/C,"endpoint: median tumor weight change, dose: 0.38 mg/kg/injection, schedule: Q01DX001 (ip), vehicle: saline with Tween-80",92 % of control
same,T/C,"endpoint: median tumor weight change, dose: 0.75 mg/kg/injection, schedule: Q01DX001 (ip), vehicle: saline with Tween-80",78 % of control
same,T/C,"endpoint: median tumor weight change, dose: 1.5 mg/kg/injection, schedule: Q01DX001 (ip), vehicle: saline with Tween-80",104 % of control
same,T/C,"endpoint: median tumor weight change, dose: 3.0 mg/kg/injection, schedule: Q01DX001 (ip), vehicle: saline with Tween-80",102 % of control
[N-]=[N+]=C1N=CN=C1c1ncn[nH]1,T/C,"endpoint: median tumor weight (est.), dose: 3.12 mg/kg/injection, schedule: Q07DX005 (ip), vehicle: carboxymethylcellulose (CMC)",91 % of control
same,T/C,"endpoint: median tumor weight (est.), dose: 6.25 mg/kg/injection, schedule: Q07DX005 (ip), vehicle: carboxymethylcellulose (CMC)",95 % of control
O=C(O)C1CSCN1 (configuration not stated),T/C,"endpoint: median tumor weight change, dose: 12.5 mg/kg/injection, schedule: Q01DX001 (ip), vehicle: water",79 % of control
same,T/C,"endpoint: median tumor weight change, dose: 25.0 mg/kg/injection, schedule: Q01DX001 (ip), vehicle: water",111 % of control
same,T/C,"endpoint: median tumor weight change, dose: 50.0 mg/kg/injection, schedule: Q01DX001 (ip), vehicle: water",173 % of control
same,T/C,"endpoint: median tumor weight change, dose: 100.0 mg/kg/injection, schedule: Q01DX001 (ip), vehicle: water",90 % of control
same,T/C,"endpoint: median tumor weight change, dose: 200.0 mg/kg/injection, schedule: Q01DX001 (ip), vehicle: water",59 % of control
O=S(CCCl)CCCl,T/C,"endpoint: median tumor weight (est.), dose: 1.56 mg/kg/injection, schedule: Q07DX005 (ip), vehicle: Klucel (hydroxypropylcellulose) (HPC)",75 % of control
same,T/C,[11],100 % of control
same,T/C,[12],230 % of control
same,T/C,[13],91 % of control
CNC=O,T/C,"endpoint: median tumor weight change, dose: 25.0 mg/kg/injection, schedule: Q01DX001 (ip), vehicle: saline",54 % of control
same,T/C,"endpoint: median tumor weight change, dose: 50.0 mg/kg/injection, schedule: Q01DX001 (ip), vehicle: saline",75 % of control
same,T/C,"endpoint: median tumor weight change, dose: 100.0 mg/kg/injection, schedule: Q01DX001 (ip), vehicle: saline",59 % of control
same,T/C,"endpoint: median tumor weight change, dose: 200.0 mg/kg/injection, schedule: Q01DX001 (ip), vehicle: saline sonified",48 % of control
same,T/C,"endpoint: median tumor weight change, dose: 200.0 mg/kg/injection, schedule: Q01DX001 (ip), vehicle: saline",72 % of control
same,T/C,"endpoint: median tumor weight change, dose: 800.0 mg/kg/injection, schedule: Q01DX001 (ip), vehicle: saline",154 % of control
same,T/C,"endpoint: median tumor weight change, dose: 1600.0 mg/kg/injection, schedule: Q01DX001 (ip), vehicle: saline",71 % of control
same,T/C,"endpoint: median tumor weight change, dose: 3200.0 mg/kg/injection, schedule: Q01DX001 (ip), vehicle: saline",108 % of control
C=C1C(=O)C23[C@H](O)C1CC[C@H]2[C@]12COC3(O)[C@@H](O)[C@@H]1C(C)(C)CC[C@@H]2O,T/C,"endpoint: median tumor weight (est.), dose: 8.75 mg/kg/injection, schedule: Q07DX005 (ip), vehicle: Klucel (hydroxypropylcellulose) (HPC)",104 % of control
same,T/C,"endpoint: median tumor weight (est.), dose: 17.5 mg/kg/injection, schedule: Q07DX005 (ip), vehicle: Klucel (hydroxypropylcellulose) (HPC)",65 % of control
same,T/C,"endpoint: median tumor weight change, dose: 15.62 mg/kg/injection, schedule: Q01DX001 (ip), vehicle: saline with Tween-80",54 % of control
same,T/C,[7],61 % of control
Cc1cc(NCCCCCCCNc2cc(C)nc3cc(N)ccc23)c2ccc(N)cc2n1,T/C,"endpoint: median tumor weight (est.), dose: 3.12 mg/kg/injection, schedule: Q07DX005 (ip), vehicle: saline with Tween-80",89 % of control
same,T/C,"endpoint: median tumor weight (est.), dose: 6.25 mg/kg/injection, schedule: Q07DX005 (ip), vehicle: saline with Tween-80",111 % of control
same,T/C,[9],79 % of control
same,T/C,[10],26 % of control
same,T/C,[7],28 % of control and 45 % of control
same,T/C,[8],27 % of control
N=[N+]=CC(=O)OCC(N)C(=O)O (configuration not stated),T/C,"endpoint: median tumor weight (est.), dose: 6.25 mg/kg/injection, schedule: Q07DX005 (ip), vehicle: clinical formulation",76 % of control
same,T/C,[14],58 % of control and 79 % of control
same,T/C,"endpoint: median tumor weight (est.), dose: 12.5 mg/kg/injection, schedule: Q07DX005 (ip), vehicle: clinical formulation",71 % of control
same,T/C,"endpoint: median tumor weight (est.), dose: 25.0 mg/kg/injection, schedule: Q07DX005 (ip), vehicle: clinical formulation",32 % of control
same,T/C,"endpoint: median tumor weight (est.), dose: 50.0 mg/kg/injection, schedule: Q07DX005 (ip), vehicle: clinical formulation",29 % of control
same,T/C,"endpoint: median tumor weight (est.), dose: 50.0 mg/kg/injection, schedule: Q07DX005 (ip), vehicle: water",65 % of control
Cc1ncc(CNC(=O)N(CCCl)N=O)c(N)n1,T/C,"endpoint: median tumor weight (est.), dose: 6.25 mg/kg/injection, schedule: Q07DX005 (ip), vehicle: saline",18 % of control
same,T/C,"endpoint: median tumor weight (est.), dose: 12.5 mg/kg/injection, schedule: Q07DX005 (ip), vehicle: saline",20 % of control
same,T/C,"endpoint: median tumor weight (est.), dose: 25.0 mg/kg/injection, schedule: Q07DX005 (ip), vehicle: saline",14 % of control
CN(C)CCN1C(=O)c2cccc3cc([N+](=O)[O-])cc(c23)C1=O,T/C,"endpoint: median tumor weight change, dose: 7.5 mg/kg/injection, schedule: Q01DX001 (ip), vehicle: saline with Tween-80",57 % of control
same,T/C,"endpoint: median tumor weight change, dose: 15.0 mg/kg/injection, schedule: Q01DX001 (ip), vehicle: saline with Tween-80",91 % of control
same,T/C,"endpoint: median tumor weight change, dose: 30.0 mg/kg/injection, schedule: Q01DX001 (ip), vehicle: saline with Tween-80",55 % of control
CC(C)CCC[C@@H](C)[C@H]1CC[C@H]2[C@@H]3CC=C4C[C@@H](OC(=O)Cc5ccc(N(CCCl)CCCl)cc5)CC[C@]4(C)[C@H]3CC[C@]12C,T/C,[1],91 % of control
same,T/C,[2],73 % of control
same,T/C,[3],123 % of control
same,T/C,[4],57 % of control
same,T/C,[5],102 % of control
same,T/C,[6],36 % of control
Nc1n[n+](-c2ccc(Cl)cc2)no1,T/C,[14],184 % of control
same,T/C,"endpoint: median tumor weight (est.), dose: 12.5 mg/kg/injection, schedule: Q07DX005 (ip), vehicle: water",103 % of control
same,T/C,"endpoint: median tumor weight (est.), dose: 25.0 mg/kg/injection, schedule: Q07DX005 (ip), vehicle: water",88 % of control
CCC(C)C1NC(=O)C(CC(C)C)NC(=O)C(C(C)C)NC(=O)C2CSSCC(NC1=O)C(=O)N2 (configuration not stated) (cyclo(CCVLI); disulfide 1-2; configuration not given here),T/C,"endpoint: median tumor weight change, dose: 0.31 mg/kg/injection, schedule: Q01DX001 (ip), vehicle: Klucel (hydroxypropylcellulose) (HPC)",78 % of control
same,T/C,"endpoint: median tumor weight change, dose: 0.62 mg/kg/injection, schedule: Q01DX001 (ip), vehicle: Klucel (hydroxypropylcellulose) (HPC)",118 % of control
same,T/C,"endpoint: median tumor weight change, dose: 1.25 mg/kg/injection, schedule: Q01DX001 (ip), vehicle: Klucel (hydroxypropylcellulose) (HPC)",74 % of control
same,T/C,"endpoint: median tumor weight change, dose: 2.5 mg/kg/injection, schedule: Q01DX001 (ip), vehicle: Klucel (hydroxypropylcellulose) (HPC)",94 % of control
same,T/C,"endpoint: median tumor weight change, dose: 5.0 mg/kg/injection, schedule: Q01DX001 (ip), vehicle: Klucel (hydroxypropylcellulose) (HPC)",111 % of control
C[C@H](N)C(=O)N[C@@H]1[C@H]2C(=C(O)C[C@@H](O)[C@@H]2O)C(=O)O[C@@H]1C,T/C,"endpoint: median tumor weight change, dose: 125.0 mg/kg/injection, schedule: Q01DX001 (ip), vehicle: saline",101 % of control
same,T/C,"endpoint: median tumor weight change, dose: 250.0 mg/kg/injection, schedule: Q01DX001 (ip), vehicle: saline",120 % of control
same,T/C,"endpoint: median tumor weight change, dose: 1000.0 mg/kg/injection, schedule: Q01DX001 (ip), vehicle: saline",57 % of control
same,T/C,"endpoint: median tumor weight change, dose: 2000.0 mg/kg/injection, schedule: Q01DX001 (ip), vehicle: saline",86 % of control
CNC(=O)OCc1c(COC(=O)NC)c(-c2ccc(F)cc2)n2c1CCC2,T/C,[11],49 % of control
same,T/C,[12],63 % of control
same,T/C,[13],84 % of control
same,T/C,[1],48 % of control
same,T/C,[2],39 % of control
